Measurements: patent publication US9868728B2, “Quinazoline derivatives, compositions, and uses related thereto” (Emory University, priority 2010, dated 2018)

Tests used:
NOX2 = target: T1, NOX2 (Homo sapiens, UniProt P04839); test: Nox2 cell-free assay (LO12 luminescence); type: biochemical; details: Nox2 cell-free system; for IC50: read-out: NOX2 IC50 (concentration giving half-maximal inhibition); for Emax: value in parentheses, read-out: % inhibition (maximum inhibition achieved at a very high concentration of the compound)
T1 construct: isolated plasma membranes from human neutrophils as a source for Nox2-p22phox; from tissue; host or cells: Plasma membranes of human neutrophils (Nox2-p22phox); cytosolic factors recombinant from E. coli
T1 sequence (P04839 2-570 limits assumed): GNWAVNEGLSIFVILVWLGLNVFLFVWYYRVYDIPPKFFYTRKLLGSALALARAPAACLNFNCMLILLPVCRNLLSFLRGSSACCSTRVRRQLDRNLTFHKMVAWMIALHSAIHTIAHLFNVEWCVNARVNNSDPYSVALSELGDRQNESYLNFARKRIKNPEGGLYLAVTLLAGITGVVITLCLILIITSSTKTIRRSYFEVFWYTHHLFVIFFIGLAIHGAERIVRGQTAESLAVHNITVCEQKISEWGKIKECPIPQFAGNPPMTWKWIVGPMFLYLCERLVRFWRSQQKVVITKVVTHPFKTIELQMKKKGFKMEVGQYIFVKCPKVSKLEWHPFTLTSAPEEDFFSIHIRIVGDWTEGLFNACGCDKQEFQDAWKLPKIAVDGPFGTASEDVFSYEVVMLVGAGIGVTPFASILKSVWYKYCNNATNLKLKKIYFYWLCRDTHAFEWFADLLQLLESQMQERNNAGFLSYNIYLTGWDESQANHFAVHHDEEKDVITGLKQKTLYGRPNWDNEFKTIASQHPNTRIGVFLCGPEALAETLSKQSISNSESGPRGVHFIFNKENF
T1 sequence (P13498 2-195 partner limits assumed): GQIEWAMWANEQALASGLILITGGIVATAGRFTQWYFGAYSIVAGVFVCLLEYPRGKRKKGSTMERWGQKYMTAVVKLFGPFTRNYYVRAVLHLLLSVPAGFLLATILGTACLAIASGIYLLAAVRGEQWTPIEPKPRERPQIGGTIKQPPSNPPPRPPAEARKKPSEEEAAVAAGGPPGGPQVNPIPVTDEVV
Protocol: The following compounds were tested according to the procedures provided in the experimental section. Assays were carried out using the Nox2 cell-free system. The IC50 value is the concentration giving half-maximal inhibition, while the “% inhibition” shown in parentheses is the maximum inhibition achieved at a very high concentration of the compound. 100% refers to complete inhibition within experimental error of the assay.
In certain assays a Cell-Free recombinant NOX-2 system (consisting of isolated plasma membranes from human neutrophils as a source for Nox2-p22phox, supplemented with recombinant p47phox, p67phox and Rac1Q61L (activated Rac), expressed in and isolated from of E. coli. LO12 luminescence was used as a readout to monitor enzymatic activity.
Plasma membranes were prepared from human neutrophils, which express large amounts of Nox2 and stored at −80 C until use. Membranes are mixed with recombinant, purified cytosolic regulatory proteins (p67Np47 chimera, and constitutively active Rac1 mutant Q61) and FAD, along with varying concentrations of compound, and LO12, which luminesces when it reacts with ROSvi. The reaction is started by addition of NADPH and SDS (an artificial stimulus for Nox2). See Curnutte et al., (1987) J. Biol. Chem. 262: 6450-6452.

human neutrophils = test: ROS production in human neutrophils; type: cell-based; details: Neutrophil, which express the Nox2 system, read-out: IC50 of inhibition of ROS production
Excerpt: The Nox2 inhibition activity of two compounds is shown in FIG. 1, along with data from the two assay controls.

Nox4 DH = target: T2, Nox4 DH (Homo sapiens, UniProt Q9NPH5); test: Nox4 DH inhibition kinetics with NADPH; type: biochemical; details: versus substrate NADPH; major effect on apparent Km, minor effect on Vmax
T2 sequence (Q9NPH5 304-578 limits assumed): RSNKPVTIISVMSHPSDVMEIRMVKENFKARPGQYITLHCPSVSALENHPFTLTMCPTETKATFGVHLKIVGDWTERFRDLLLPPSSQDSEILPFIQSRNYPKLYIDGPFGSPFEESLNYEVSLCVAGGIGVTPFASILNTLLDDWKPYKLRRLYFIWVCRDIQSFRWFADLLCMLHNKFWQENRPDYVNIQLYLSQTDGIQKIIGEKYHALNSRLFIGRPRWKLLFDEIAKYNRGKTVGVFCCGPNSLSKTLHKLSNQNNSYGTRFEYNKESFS

IC50 (NOX2) | Compound | other results
1500 nM | CCSC1Nc2ccccc2C(=O)N1CCC[N+]1(CC)CCOCC1 (stereo not shown) [TG6-99-2] | Emax (NOX2): 99%
600 nM | O=c1c2cc(Cl)ccc2[nH]c(=S)n1CCCN1CCCCC1 [TG6-243] | –
600 nM | CN(C)CCCn1c(=S)[nH]c2ccc(F)cc2c1=O [TG6-248] | –
400 nM | CN(C)CCCn1c(=S)[nH]c2cc(F)c(F)cc2c1=O [TG6-250] | –
700 nM | CCn1c(=S)[nH]c2ccc(F)cc2c1=O [TG6-269-1] | –
8000 nM | CCCn1c(=S)[nH]c2ccc(Cl)cc2c1=O [TG6-280] | –
700 nM | CC(C)n1c(=S)[nH]c2cc(F)c(F)cc2c1=O [TG6-284-2] | –
1300 nM | CN(C)c1cccc(-n2c(=S)[nH]c3ccc(Cl)cc3c2=O)c1 [TG6-285] | –
200 nM | COc1ccc(N(C)CCCn2c(=S)[nH]c3ccc(Cl)cc3c2=O)cc1 [TG7-25] | –

Continued, compound first:

Compound | IC50 (NOX2) | other results
CN(C)CCCCn1c(SCC(=O)Nc2nc(-c3ccc(Br)cc3)cs2)nc2ccccc2c1=O [AS158b] | 2000 nM | Emax (NOX2): 100%; IC50 (human neutrophils): 1500 nM
CN(C)CCCn1c(=S)[nH]c2ccc(Cl)cc2c1=O.Cl [TG6-44] | 1000 nM | Emax (NOX2): 100%; IC50 (human neutrophils): 2000 nM; mode of inhibition of Nox4 DH (Nox4 DH): competitive inhibitor
N#CCCCCSc1nc2ccccc2c(=O)n1CCN1CCCCC1 [TG6-101] | – | NOX2 IC50 (concentration giving half-maximal inhibition) (NOX2): Not active
CSc1nc2ccccc2c(=O)n1CCC[N+]1(C)CCOCC1 [TG6-103-1] | 1500 nM | Emax (NOX2): 100%
CSc1nc2ccc(F)cc2c(=O)n1CCC[N+](C)(C)C [TG6-103-2] | 1000 nM | Emax (NOX2): 100%
O=c1c2cc(Cl)ccc2[nH]c(=S)n1CCN1CCNCC1 [TG6-170] | 2000 nM | –
O=c1c2cc(Cl)ccc2[nH]c(=S)n1CCCN1CCCCC1 [TG6-172] | 1100 nM | –
O=C(c1ccc(F)cc1)N1CCN(CCn2c(=S)[nH]c3ccc(Cl)cc3c2=O)CC1 [TG6-173] | 2000 nM | –
O=c1c2ccccc2[nH]c(=S)n1CCCN1CCOCC1 [TG6-249] | 1000 nM | –
CC(C)n1c(=S)[nH]c2cc3c(cc2c1=O)OCCO3 [TG6-272] | 700 nM | –
CN(C)CCCn1c(=S)[nH]c2cc3c(cc2c1=O)OCCO3 [TG6-290-1] | 800 nM | –
COc1cc2[nH]c(=S)n(C#N)c(=O)c2cc1OC [TG6-295-2] | 200 nM | –
COc1ccc(N2CCN(CCn3c(=S)[nH]c4ccc(Cl)cc4c3=O)CC2)cc1 [TG7-20] | 300 nM | –
COc1ccc(N2CCN(CCn3c(=S)[nH]c4cc(OC)c(OC)cc4c3=O)CC2)cc1 [TG7-29] | 700 nM | –
